Source: ChEMBL document CHEMBL1201862, “PubChem BioAssay data set” (2004)
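1) Cells in 96-well plates. 2) Compound, 48 h, 5 concentrations. 3) Linear interpolation between surrounding doses. 4) Unreached endpoint = highest concentration. At the GI50, growth is halved.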 Active and inactive are the calls of the source. No stated cut-off is given here; in the data, active = GI50 up to about 1.1 µM and inactive = higher.

Tests used:
Experiment in all cases: NCI-60 cell line screen, 48 h
[1] = system: 786-0
[2] = system: A498
[3] = system: A549
[4] = system: ACHN
[5] = system: BT-549
[6] = system: CAKI-1
[7] = system: CCRF-CEM
[8] = system: COLO 205
[9] = system: DU-145
[10] = system: EKVX
[11] = system: HCC 2998
[12] = system: HCT-116
[13] = system: HCT-15
[14] = system: HL-60
[15] = system: HOP-62
[16] = system: HOP-92
[17] = system: HT-29
[18] = system: Hs-578T
[19] = system: IGROV-1
[20] = system: K562
[21] = system: KM12
[22] = system: LOX IMVI
[23] = system: M14
[24] = system: MCF7
[25] = system: MDA-MB-231
[26] = system: MDA-MB-435
[27] = system: MDA-N
[28] = system: MOLT-4
[29] = system: Malme-3M
[30] = system: NCI-H226
[31] = system: NCI-H23
[32] = system: NCI-H460
[33] = system: NCI-H522
[34] = system: NCI/ADR-RES
[35] = system: OVCAR-3
[36] = system: OVCAR-4
[37] = system: OVCAR-5
[38] = system: OVCAR-8
[39] = system: PC-3
[40] = system: RPMI-8226
[41] = system: RXF 393
[42] = system: SF-268
[43] = system: SF-295
[44] = system: SF-539
[45] = system: SK-MEL-28
[46] = system: SK-MEL-2
[47] = system: SK-MEL-5
[48] = system: SK-OV-3
[49] = system: SN12C
[50] = system: SNB-19
[51] = system: SNB-75
[52] = system: SR
[53] = system: SW-620
[54] = system: T47D
[55] = system: TK-10
[56] = system: U-251
[57] = system: UACC-257
[58] = system: UACC-62
[59] = system: UO-31
[60] = system: DLD-1
[61] = system: DMS-114
[62] = system: DMS-273
[63] = system: HOP-18
[64] = system: KM-20L2
[65] = system: M19-MEL

In the case of `COc1ccc2cc(CNCCCCCCCCCCCCNCc3ccc4cc(OC)ccc4c3)ccc2c1`, the GI50 [1] is reported as 16.5 µM (inactive), the GI50 [2] is reported as 18 µM (inactive) and the GI50 [3] is reported as 24.3 µM (inactive). For the same compound, the GI50 [4] was 19.6 µM (inactive), the GI50 [5] was 18.9 µM (inactive) and the GI50 [6] was 20.9 µM (inactive). For the same compound, the GI50 [7] was 9.46 µM (inactive), the GI50 [8] was 16.4 µM (inactive) and the GI50 [9] was 30 µM (inactive). The GI50 [10] was 20.3 µM (inactive), the GI50 [11] was 13.5 µM (inactive) and the GI50 [12] was 16.7 µM (inactive). For the same compound, the GI50 [13] was 17.6 µM, the GI50 [14] was 10.4 µM (inactive) and the GI50 [15] was 19.4 µM (inactive). The GI50 [16] was 21.7 µM (inactive), the GI50 [17] was 8.49 µM (inactive) and the GI50 [18] was 15.9 µM (inactive). The GI50 [19] was 15.8 µM (inactive), the GI50 [20] was 10.4 µM (inactive) and the GI50 [21] was 19.2 µM (inactive). The GI50 [22] was 15 µM (inactive), the GI50 [23] was 17.4 µM (inactive) and the GI50 [24] was 17.1 µM (inactive). For the same compound, the GI50 [25] was 23.5 µM (inactive), the GI50 [26] was 25.6 µM (inactive) and the GI50 [27] was 21.4 µM (inactive). For the same compound, the GI50 [28] was 21.5 µM (inactive), the GI50 [29] was 16.6 µM (inactive) and the GI50 [30] was 18.5 µM (inactive). For the same compound, the GI50 [31] was 20 µM (inactive), the GI50 [32] was 17.3 µM (inactive) and the GI50 [33] was 18.9 µM (inactive). For the same compound, the GI50 [34] was 19.5 µM (inactive), the GI50 [35] was 21.2 µM (inactive) and the GI50 [36] was 16.4 µM (inactive). The GI50 [37] was 28.4 µM (inactive), the GI50 [38] was 15 µM (inactive) and the GI50 [39] was 28.3 µM (inactive). The GI50 [40] was 12.8 µM (inactive), the GI50 [41] was 14.8 µM (inactive) and the GI50 [42] was 8.04 µM (inactive). The GI50 [43] was 19.5 µM (inactive), the GI50 [44] was 17.4 µM (inactive) and the GI50 [45] was 27.7 µM (inactive). The GI50 [46] was 22.5 µM (inactive), the GI50 [47] was 22.6 µM (inactive) and the GI50 [48] was 18.7 µM (inactive). The GI50 [49] was 19.7 µM (inactive), the GI50 [50] was 17.5 µM (inactive) and the GI50 [51] was 13.9 µM (inactive). For the same compound, the GI50 [52] was 1.79 µM (inactive), the GI50 [53] was 20.7 µM (inactive) and the GI50 [54] was 15.8 µM (inactive). For the same compound, the GI50 [55] was 18.8 µM (inactive), the GI50 [56] was 20.8 µM (inactive) and the GI50 [57] was 21 µM (inactive). For the same compound, the GI50 [58] was 21.2 µM (inactive) and the GI50 [59] was 20.9 µM (inactive).
In the case of `Cc1cc(O)nc(NNC(C#N)c2ccccc2O)n1` (stereo not drawn), the GI50 [1] is reported as 19.8 µM (inactive), the GI50 [3] is reported as 16.8 µM (inactive) and the GI50 [4] is reported as 16.6 µM (inactive). For the same compound, the GI50 [6] was 30.8 µM (inactive), the GI50 [7] was 13.6 µM (inactive) and the GI50 [8] was 31 µM (inactive). For the same compound, the GI50 [60] was 18.4 µM (inactive), the GI50 [61] was 19.8 µM (inactive) and the GI50 [62] was 5.27 µM (inactive). For the same compound, the GI50 [12] was 19.3 µM (inactive), the GI50 [13] was 11.9 µM and the GI50 [14] was 3.72 µM (inactive). For the same compound, the GI50 [63] was 23.3 µM (inactive), the GI50 [15] was 31.3 µM (inactive) and the GI50 [16] was 75.5 µM (inactive). For the same compound, the GI50 [17] was 30.2 µM (inactive), the GI50 [19] was 21 µM (inactive) and the GI50 [20] was 41.7 µM (inactive). For the same compound, the GI50 [64] was 13.1 µM (inactive), the GI50 [21] was 35.6 µM (inactive) and the GI50 [22] was 17.6 µM (inactive). For the same compound, the GI50 [65] was 17.8 µM (inactive), the GI50 [28] was 24.6 µM (inactive) and the GI50 [29] was 35.7 µM (inactive). The GI50 [30] was 31.1 µM (inactive), the GI50 [31] was 22.7 µM (inactive) and the GI50 [32] was 10.5 µM (inactive). For the same compound, the GI50 [33] was 41.4 µM (inactive), the GI50 [35] was 10.8 µM (inactive) and the GI50 [36] was 15.5 µM (inactive). The GI50 [37] was 58.6 µM (inactive), the GI50 [38] was 35.7 µM (inactive) and the GI50 [40] was 22 µM (inactive). For the same compound, the GI50 [41] was > 100 µM (inactive), the GI50 [42] was 13 µM (inactive) and the GI50 [43] was 38.4 µM (inactive). For the same compound, the GI50 [44] was 10.4 µM (inactive), the GI50 [45] was 36.3 µM (inactive) and the GI50 [46] was 66.8 µM (inactive). The GI50 [47] was 19.9 µM (inactive), the GI50 [48] was 39.4 µM (inactive) and the GI50 [49] was 73.6 µM (inactive). The GI50 [51] was 31.5 µM (inactive), the GI50 [52] was 4.3 µM (inactive) and the GI50 [53] was 44.6 µM (inactive). The GI50 [55] was 61 µM (inactive), the GI50 [56] was 15.2 µM (inactive) and the GI50 [57] was 39 µM (inactive). For the same compound, the GI50 [58] was 21.7 µM (inactive) and the GI50 [59] was 18.5 µM (inactive).
`COc1ccc2[nH]c3nnc(N)c-3nc2c1` was tested, and the GI50 [1] was 8.3 µM (inactive), the GI50 [2] was 9.79 µM (inactive) and the GI50 [3] was 4.14 µM (inactive). For the same compound, the GI50 [4] was 3.33 µM (inactive), the GI50 [5] was 13.6 µM (inactive) and the GI50 [6] was 5.66 µM (inactive). For the same compound, the GI50 [7] was 9.31 µM (inactive), the GI50 [8] was 3.62 µM (inactive) and the GI50 [9] was 7.55 µM (inactive). For the same compound, the GI50 [10] was 4.26 µM (inactive), the GI50 [11] was 14.1 µM (inactive) and the GI50 [12] was 4.04 µM (inactive). For the same compound, the GI50 [13] was 7.94 µM, the GI50 [14] was 2.13 µM (inactive) and the GI50 [15] was 6.14 µM (inactive). The GI50 [16] was 10.4 µM (inactive), the GI50 [17] was 5.58 µM (inactive) and the GI50 [18] was 3.81 µM (inactive). The GI50 [19] was 2.59 µM (inactive), the GI50 [20] was 62.4 µM (inactive) and the GI50 [21] was 5.68 µM (inactive). The GI50 [22] was 4.11 µM (inactive), the GI50 [23] was 12.3 µM (inactive) and the GI50 [24] was 3.99 µM (inactive). For the same compound, the GI50 [25] was 18.9 µM (inactive), the GI50 [26] was 10.2 µM (inactive) and the GI50 [27] was 12 µM (inactive). The GI50 [28] was 5.73 µM (inactive), the GI50 [29] was 21.8 µM (inactive) and the GI50 [30] was 3.85 µM (inactive). The GI50 [31] was 4.17 µM (inactive), the GI50 [32] was 7.46 µM (inactive) and the GI50 [33] was 5.83 µM (inactive). For the same compound, the GI50 [34] was 7.01 µM (inactive), the GI50 [35] was 3.61 µM (inactive) and the GI50 [36] was 20 µM (inactive). The GI50 [37] was 7.8 µM (inactive), the GI50 [38] was 5.62 µM (inactive) and the GI50 [39] was 8.43 µM (inactive). The GI50 [40] was 3.87 µM (inactive), the GI50 [41] was 2.49 µM (inactive) and the GI50 [42] was 6.21 µM (inactive). For the same compound, the GI50 [43] was 7.66 µM (inactive), the GI50 [44] was 3.74 µM (inactive) and the GI50 [45] was 11.2 µM (inactive). The GI50 [46] was 5.28 µM (inactive), the GI50 [47] was 8.09 µM (inactive) and the GI50 [48] was 20.4 µM (inactive). The GI50 [49] was 18.4 µM (inactive), the GI50 [50] was 16.5 µM (inactive) and the GI50 [51] was 6.79 µM (inactive). For the same compound, the GI50 [52] was 4.1 µM (inactive), the GI50 [53] was 9.4 µM (inactive) and the GI50 [54] was 7.5 µM (inactive). The GI50 [55] was 11.3 µM (inactive), the GI50 [56] was 10.6 µM (inactive) and the GI50 [57] was 17.1 µM (inactive). The GI50 [58] was 7.01 µM (inactive) and the GI50 [59] was 9.73 µM (inactive).
